The values below come from US9205121B2, “Echinacea formulation” (Integria Healthcare (Australia) PTY LTD, priority 2004, dated 2015).

The test system of one series is human liver microsomes. The series is classed as in vitro ADME. As to the method: Livers were obtained from organ donors according to procedures is approved by the University of Queensland ethics committees. Samples of human liver were frozen in liquid nitrogen and stored at −70° C. prior to use. Microsomes were prepared according to the method of Guengerich except that microsomes were subjected to a final wash in 10 mM Tris-acetate, 1 mM EDTA and 20% glycerol pH 7.4 (resuspension buffer) to remove residual drugs (e.g. phenytoin—data not shown) present in donor livers.
Incubations (0.5 mL) with tissue fractions contained either the microsomal fraction at […] or the cytosolic fraction at 5 mg/mL protein in 100 mM potassium phosphate (pH 7.4) supplemented with is substrates (synthetic alkylamides 6, 11, 3 and 12 or the alkylamide fraction from the ethanolic liquid as required—see Figure legends for concentrations used) added from ethanolic stocks. Final ethanol concentrations were either 0.70% or 0.96% and were consistent in each assay. Reactions were initiated by the addition of an NADPH-generating system consisting of (final concentrations) […] NADP+, 10 mM glucose-6-phosphate and 0.5 μ/mL glucose-6-phosphate dehydrogenase. Negative controls and cytosolic incubations lacked an NADPH-generating system. Reaction mixtures were incubated at 37° C. with gentle agitation for the duration of each experiment. Reactions were terminated by addition of an equal volume of 100% methanol to a sample aliquot. Diluted samples were then centrifuged at 16000×g for 2 minutes and supernatants stored at −20° C. until analysis by LCMS.
Alkylamide concentrations in samples were determined by LCMS using a gradient HPLC system (Shimadzu LC1OAT) coupled to a quadrupole mass spectrometer (Shimadzu, QP8000a) operating in positive SIM mode with an APCI interface. The mobile phases were a mixture of water and acetonitrile. Alkylamides 6 and 3 were detected using a 65% acetonitrile isocratic run. Alkylamides 11 and 12 were detected using an 85% acetonitrile isocratic run. The alkylamide fraction was analysed using a gradient that increased from 20% to 40% acetonitrile over the first 5 minutes, then to 80% acetonitrile over the following 15 minutes and to 100% over the next 3 minutes followed by a re-equilibration period at 20% acetonitrile prior to the next injection. A similar gradient was used in scan and then SIM (M+1 of 248, 264, 246, 192, 280 and 282) modes to identify metabolites of 3. A C18, 3 m, 100×2.00 mm Phenomenex Luna column was used with a solvent flow rate of 0.3 mL/minute. All alkylamides were linear in the range 0.001-10 mg/mL (R^2>0.9) with a coefficient of variation between 4 and 5.
A number of pure, synthetic alkylamides (6, 11 3 and 12 as shown in FIG. 1) as well as the complex mixture of alkylamides obtained from an ethanolic extract of Echinacea were investigated for their susceptibility to liver P450-mediated degradation in microsomal preparations from four different subjects. The concentration of each substrate remaining at the given time points was quantified with LCMS and rates of substrate depletion were calculated as a percentage of the original concentration. […] From FIG. 3 it can be seen that there was a clear difference in the ability of the liver microsomal P450s to metabolise the synthetic 2-ene and the 2,4-diene alkylamides. […] In contrast, the 2,4-dienes were rapidly metabolised with only 9±2% of the original concentration of 3 and 2±1% of the original concentration of 12 detected after 2 hours. […]

The next series concerns TNF-α. Nature of the series: TNF-α production under LPS stimulated conditions in macrophages. The series is classed as cell-based, mouse. Particulars: RAW 264.7 macrophages. An excerpt:
Macrophages play an essential role in the development of specific and non-specific immune responses. Upon activation by a variety of stimuli macrophages release a number of products having biological activity. Such products include cytokines, such as TNF-α, […] and nitric oxide (NO). Macrophages undergo a process of cellular “activation” which is associated with morphological, functional, and biochemical changes in the cells in response to inflammatory signals or antigens. One prominent characteristic of activated macrophages is their increased capacity to release pro-inflammatory and cytotoxic mediators, which help aid in the resolution of infection or inflammation. As a prelude to macrophage activation LPS must bind to a receptor on the macrophage cell surface. Several LPS receptors have been identified in different macrophages with the most thoroughly studied receptor being the CD14 receptor.
The synthetic alkylamides correspond to the major 2-ene and 2,4-diene alkylamides found in Echinacea. These alkylamides are illustrated in FIG. 1 as compounds 6 and 3 respectively.

The subject of a further series is phagocytosis. As to conditions: in vitro and in vivo; cited from earlier work.

For the compound `C#CC#CCCCC/C=C/C(=O)NCC(C)C` [alkylamide 6, (2E)-N-isobutylundeca-2-ene-8,10-diynamide], in the series with human liver microsomes (human, 2 h, pH 7.4), the “% of initial levels still present” value was 91±24%. In the case of `CC#CC#CCCCC/C=C/C(=O)NCC(C)C` [alkylamide 11, (2E)-N-isobutyldodeca-2-ene-8,10-diynamide], the “rate of alkylamide metabolism relative to the rate found for 6” value with human liver microsomes is recorded as “two fold higher”. Same read-out and setting: the entry for `CCCCCCC/C=C/C=C/C(=O)NCC(C)C` [alkylamide 12, (2E-4E)-N-isobutyldodea-2,4-dienamide] is “ten fold higher”.

Turning to `O=C(/C=C/c1ccc(O)c(O)c1)O[C@@H](C(=O)O)[C@@H](OC(=O)/C=C/c1ccc(O)c(O)c1)C(=O)O` [cichoric acid], in the series with TNF-α, the “TNF-α production under LPS stimulated conditions” value was “significantly decreased”. Besides, in the series with phagocytosis, the stimulation of phagocytosis result is “marked stimulation”.
